From PubChem BioAssay (NCI)
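Method: 48-hour compound exposure of cells in 96-well plates, five concentrations, linear interpolation of endpoints. GI50: concentration for 50% inhibition of growth. TGI: concentration producing complete growth inhibition.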

How the values were obtained:
Assay in all cases: growth of human tumour cells (NCI), 48 h
[1] = system: 786-0 renal
[2] = system: HT29 colon
[3] = system: KM12 colon
[4] = system: LOX IMVI melanoma
[5] = system: MALME-3M melanoma
[6] = system: NCI-H460 lung
[7] = system: NCI/ADR-RES ovarian
[8] = system: SF-539 CNS
[9] = system: SK-MEL-28 melanoma
[10] = system: SNB-19 CNS

Row | Structure (SMILES) | GI50 [1] [µM] | TGI [1] [µM] | GI50 [2] [µM] | TGI [2] [µM] | GI50 [3] [µM] | TGI [3] [µM] | GI50 [4] [µM] | TGI [4] [µM] | GI50 [5] [µM] | TGI [5] [µM] | GI50 [6] [µM] | TGI [6] [µM] | GI50 [7] [µM] | TGI [7] [µM] | GI50 [8] [µM] | TGI [8] [µM] | GI50 [9] [µM] | TGI [9] [µM] | GI50 [10] [µM] | TGI [10] [µM]
1 | Cc1ccc([I+]c2ccc(C)cc2)cc1 | 28.8 | > 100 | 0.887 | 27.4 | 4.27 | 52.2 | 2.33 | > 100 | 1.97 | 44.8 | 3.48 | 30.4 | > 100 | > 100 | 16.4 | > 100 | 10.6 | > 100 | 16.1 | > 100
2 | Oc1c(CCl)cc(Cl)cc1Cc1cc(Cl)cc(Cc2cc(Cl)cc(CCl)c2O)c1O | 4.61 | 25.3 | 5.37 | 17.6 | 3.43 | 13.5 | 3.27 | 12.2 | 3.32 | 14.7 | 3.26 | 11 | 2.2 | 7.29 | 4.16 | 18.2 | 3.1 | 16.1 | 3.02 | 15.9
3 | COc1ccc(/C=C/C(=O)c2ccc(B(O)O)cc2)cc1O | 18.7 | 53.7 | 8.22 | > 60.4 | 3.96 | 15 | 4.66 | 19.1 | 32.3 | > 100 | 19.8 | > 83.4 | 26.8 | > 100 | 12.5 | > 79.6 | 22.3 | > 89.5 | 18.7 | > 64.3
4 | Cc1cc(C)c2c(=O)cc(-c3ccc(F)cc3)[nH]c2n1 | 78.8 | > 100 | – | > 100 | – | 49.9 | – | > 100 | – | > 100 | 51.6 | > 100 | – | > 100 | – | > 100 | – | > 100 | – | > 100
5 | CC(=O)N[C@@H](Cc1ccc(OP(=O)(O)O)cc1)C(=O)N[C@H]1CCC(=O)N2CCC[C@@H](C(=O)NCc3cccc4ccccc34)N2C1=O | > 25 | > 25 | > 25 | > 25 | > 25 | > 25 | > 25 | > 25 | > 25 | > 25 | > 25 | > 25 | > 25 | > 25 | > 25 | > 25 | > 25 | > 25 | > 25 | > 25
6 | CSc1nc(SC)c2c(C)cn(Cc3ccccc3)c2n1 | – | > 100 | – | > 100 | – | > 100 | – | > 100 | – | > 100 | – | > 100 | – | > 100 | – | > 100 | – | > 100 | – | > 100
7 | O=C(NCCCNc1cc(-c2cn(-c3ccccc3)nc2-c2cccc(O)c2)ccn1)c1ccc(F)cc1 | 1.49 | 3.62 | 1.7 | 5.43 | 3.18 | 12.3 | 2.27 | 5.88 | 1.95 | 4.49 | 3.14 | 11.5 | 2.2 | 5.75 | 2.15 | 5.41 | 1.74 | 4.12 | 4.63 | 29.5
8 | O=C(/C=C/c1cccnc1)c1ccccc1 | 7.9 | 21.4 | 2.31 | 5.92 | 2.33 | 6.87 | 1.86 | 3.62 | 15.7 | 35.9 | 7.07 | 21.2 | 14.3 | 36 | 13.3 | 28.6 | 13.1 | 25.8 | 11.7 | 25.2
